Data from patent US20110269758A1, “NAPHTHYRIDINONES AS PROTEIN KINASE INHIBITORS” (MERCK PATENT GMBH, priority 2008, published 2011).

What follows are compounds tested against T1, Aurora Kinase A (Homo sapiens, UniProt O14965) (assay: Biochemical enzyme assay for Aurora A activity (Caliper LC3000 / Desktop Profiler mobility shift)). Conditions: not given.
T1 construct: full length Aurora A (1-403 amino acids); purchased Carna Biosciences 05-101
T1 sequence (O14965 1-403): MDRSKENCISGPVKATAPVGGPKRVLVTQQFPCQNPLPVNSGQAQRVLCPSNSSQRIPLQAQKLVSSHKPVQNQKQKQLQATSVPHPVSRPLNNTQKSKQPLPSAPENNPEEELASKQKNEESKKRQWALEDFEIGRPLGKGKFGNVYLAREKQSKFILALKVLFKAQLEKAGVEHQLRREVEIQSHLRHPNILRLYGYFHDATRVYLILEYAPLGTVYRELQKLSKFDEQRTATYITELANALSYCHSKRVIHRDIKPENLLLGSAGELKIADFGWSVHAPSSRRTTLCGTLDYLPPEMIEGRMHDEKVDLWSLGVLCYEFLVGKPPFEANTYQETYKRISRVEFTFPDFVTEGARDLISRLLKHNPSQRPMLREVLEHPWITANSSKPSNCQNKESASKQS
Method: The Aurora assays described here were performed on two Caliper Life Sciences systems, the LC3000 and the Desktop Profiler. These provide data on enzyme activity via measurement of the relative amounts of phosphorylated or unphosphorylated fluorescently labelled substrate peptide at the end of an enzymatic reaction. These different states of peptide are resolved by applying a potential difference across the sample. The presence of a charged phosphate group on the product (as opposed to the substrate) causes a different peptide mobility between the two peptides. This is visualized by excitation of a fluorescent label on the substrate and product peptides and represented as peaks within the analysis software.
In order to measure inhibitor activity of Aurora A inhibitors in the Caliper Life Sciences LC3000, a TTP Mosquito liquid handling instrument was used to place 0.25 μl of an appropriate concentration of inhibitor in 100% DMSO (for a dose response curve calculation) into each well of a 384-well plate.
The reaction was incubated for 90 min at 25° C., and then stopped by the addition of 70 μl of Stop buffer (100 mM HEPES pH 7.5, 0.015% Brij-35, 10 mM EDTA (Sigma, E7889)).
The plate was read on a Caliper LC 3000 in an Off-Chip mobility shift assay format, using the following parameters for a 12-sipper chip: screening pressure −1.8 psi, upstream voltage −2700, downstream voltage −1000. These conditions cause unphosphorylated substrate and phosphorylated product peptide to resolve as separate peaks allowing direct measurement of percentage of conversion of substrate to product.
The Desktop Profiler utilizes the same prinicipal as the LC 3000 for calculating percentage conversion of a substrate to product. Caliper Life Sciences provided proprietary flash frozen pre-made 384 well plates containing selected kinases. Each column in the 384 well plate contained a particular selected kinase. A second plate, the ‘substrate plate’ contained a mix of fluorescently labeled peptide substrate and ATP. These were arranged in columns so that transfer for substrate plate to enzyme plate provided the correct enzyme with the correct substrate/ATP concentration.
Compounds were added to a thawed enzyme plate in the desired format, in single concentrations. Reactions were initiated by transfer of the substrate/ATP mix from the substrate plate. The enzyme plate was incubated for 90 mins at 25° C. The reaction was stopped by addition of 70 μl of Stop Buffer (100 mM HEPES pH 7.5, 0.015% Brij-35, 10 mM EDTA (Sigma, E7889)).
Plates were read in a manner identical to that of the LC3000, and the ratio between substrate and product peaks provided the activity of the enzyme in that well.

IC50 [µM] | Compound
0.001 to 0.3 | COc1ccccc1C(=O)Nc1ccc(N)cc1 [Compound 16, N-(4-Aminophenyl)-2-methoxy-benzamide]

Same assay, conditions: GST-Aurora A, 15 μM ATP, 90 min at 25° C.; LC3000 or Desktop Profiler; read-out: Aurora Kinase A IC50

IC50 [µM] | Compound
0.001 to 0.3 | Nc1ccc(NC(=O)c2cccc(C(F)(F)F)c2F)cc1 [Compound 7, N-(4-Aminophenyl)-2-fluoro-3-trifluoromethyl-benzamide]
0.001 to 0.3 | Nc1ccc(NC(=O)c2ccc(F)cc2C(F)(F)F)cc1 [Compound 8, N-(4-Aminophenyl)-4-fluoro-2-trifluoromethyl-benzamide]
0.301 to 0.6 | Nc1ccc(NC(=O)c2ccc(F)c(F)c2)cc1 [Compound 10, N-(4-Aminophenyl)-3,4-difluoro-benzamide]
0.001 to 0.3 | Nc1ccc(NC(=O)c2cc(F)cc(F)c2)cc1 [Compound 11, N-(4-Aminophenyl)-3,5-difluoro-benzamide]
0.001 to 0.3 | Nc1ccc(NC(=O)c2ccc(F)cc2F)cc1 [Compound 12, N-(4-Aminophenyl)-2,4-difluoro-benzamide]
0.001 to 0.3 | Nc1ccc(NC(=O)C2CCCCC2)cc1 [Compound 13, Cyclohexanecarboxylic acid (4-aminophenyl)-amide]
0.001 to 0.3 | Nc1ccc(NC(=O)c2cc(C(F)(F)F)cc(C(F)(F)F)c2)cc1 [Compound 14, N-(4-Aminophenyl)-3,5-bis-trifluoromethyl-benzamide]
0.001 to 0.3 | Nc1ccc(NC(=O)c2ccc3ccccc3c2)cc1 [Compound 15, Naphthalene-2-carboxylic acid (4-aminophenyl)-amide]
0.001 to 0.3 | Cc1ccc(C(=O)Nc2ccc(N)cc2)cc1 [Compound 17, N-(4-Aminophenyl)-4-methyl-benzamide]
0.001 to 0.3 | Nc1ccc(NC(=O)c2ccc(C(F)(F)F)cc2F)cc1 [Compound 18, N-(4-Aminophenyl)-2-fluoro-4-trifluoromethyl-benzamide]
0.001 to 0.3 | Nc1ccc(NC(=O)c2cc(F)cc(C(F)(F)F)c2)cc1 [Compound 19, N-(4-Aminophenyl)-3-fluoro-5-trifluoromethyl-benzamide]
0.001 to 0.3 | Nc1ccc(NC(=O)c2ccc(Cl)cc2)cc1 [Compound 20, N-(4-Aminophenyl)-4-chloro-benzamide]
0.001 to 0.3 | Nc1ccc(NC(=O)c2ccc(OC(F)(F)F)cc2)cc1 [Compound 21, N-(4-Aminophenyl)-4-trifluoromethoxy-benzamide]
0.601 to 1 | Cc1ccccc1C(=O)Nc1ccc(N)cc1 [Compound 22, N-(4-Aminophenyl)-2-methyl-benzamide]
> 1 | Cc1cccc(C(=O)Nc2ccc(N)cc2)c1 [Compound 23, N-(4-Aminophenyl)-3-methyl-benzamide]
> 1 | Nc1ccc(NC(=O)c2cccc3ccccc23)cc1 [Compound 24, Naphthalene-1-carboxylic acid (4-aminophenyl)-amide]
0.001 to 0.3 | Nc1ccc(NC(=O)c2c(Cl)cccc2Cl)cc1 [Compound 25, N-(4-Aminophenyl)-2,6-dichloro-benzamide]
0.001 to 0.3 | Nc1ccc(NC(=O)c2ccc(Cl)c(Cl)c2)cc1 [Compound 26, N-(4-Aminophenyl)-3,4-dichloro-benzamide]
0.001 to 0.3 | Nc1ccc(NC(=O)c2ccc(Cl)cc2Cl)cc1 [Compound 27, N-(4-Aminophenyl)-2,4-dichloro-benzamide]
0.001 to 0.3 | CC(C)(C)C(=O)Nc1cc(Cl)ccn1 [Compound 28, N-(4-chloropyridin-2-yl)-2,2-dimethylpropanamide]

IC50 [µM] | Compound
0.301 to 0.6 | CC(C)(C)C(=O)Nc1nccc(Cl)c1C=O [Compound 29, N-(4-chloro-3-formylpyridin-2-yl)-2,2-dimethylpropanamide]
0.001 to 0.3 | CC(C)(C)OC(=O)CC(O)c1c(Cl)ccnc1NC(=O)C(C)(C)C (stereo not shown) [Compound 30, Tert-butyl 3-{4-chloro-2-[(2,2-dimethylpropanoyl)amino]pyridin-3-yl}-3-hydroxypropanoate]
0.001 to 0.3 | O=c1ccc2c(Cl)ccnc2[nH]1 [Compound 31, 5-Chloro-1,8-naphthyridi-2(1H)-one]
0.001 to 0.3 | O=c1ccc2c(Nc3c(Cl)ccc4c3OCO4)ccnc2[nH]1 [Compound 31a, 5-(5-chlorobenzo[d][1,3]dioxo-4-ylamino)-1,8-naphthyridin-2(1H)-one]
0.001 to 0.3 | O=C(Nc1ccc(Nc2ccnc3[nH]c(=O)ccc23)cc1)c1ccccc1 [Compound 32, N-(4-(7-oxo-7,8-dihydro-1,8-naphthyridin-4-yl-amino)phenyl)benzamide]
0.001 to 0.3 | O=C(Nc1ccc(Nc2ccnc3[nH]c(=O)ccc23)cc1)c1ccccc1F [Compound 34, 2-Fluoro-N-(4-(7-oxo-7,8-dihydro-1,8-naphthyridin-4-yl-amino)phenyl)benzamide]
0.001 to 0.3 | O=C(Nc1ccc(Nc2ccnc3[nH]c(=O)ccc23)cc1)c1cccc(F)c1 [Compound 35, 3-Fluoro-N-(4-(7-oxo-7,8-dihydro-1,8-naphthyridin-4-yl-amino)phenyl)benzamide]
0.001 to 0.3 | O=C(Nc1ccc(Nc2ccnc3[nH]c(=O)ccc23)cc1)c1ccc(F)cc1 [Compound 36, 4-Fluoro-N-(4-(7-oxo-7,8-dihydro-1,8-naphthyridin-4-yl-amino)phenyl)benzamide]
0.001 to 0.3 | O=C(Nc1ccc(Nc2ccnc3[nH]c(=O)ccc23)cc1)c1ccc(F)cc1C(F)(F)F [Compound 40, 4-Fluoro-2-trifluoromethyl-N-(4-(7-oxo-7,8-dihydro-1,8-naphthyridin-4-yl-amino)phenyl)benzamide]
0.001 to 0.3 | O=C(Nc1ccc(Nc2ccnc3[nH]c(=O)ccc23)cc1)c1c(F)cccc1F [Compound 41, 2,6-Difluoro-N-(4-(7-oxo-7,8-dihydro-1,8-naphthyridin-4-yl-amino)phenyl)benzamide]
0.001 to 0.3 | O=C(Nc1ccc(Nc2ccnc3[nH]c(=O)ccc23)cc1)c1ccc(F)c(F)c1 [Compound 42, 3,4-Difluoro-N-(4-(7-oxo-7,8-dihydro-1,8-naphthyridin-4-yl-amino)phenyl)benzamide]
0.001 to 0.3 | O=C(Nc1ccc(Nc2ccnc3[nH]c(=O)ccc23)cc1)c1cc(F)cc(F)c1 [Compound 43, 3,5-Difluoro-N-(4-(7-oxo-7,8-dihydro-1,8-naphthyridin-4-yl-amino)phenyl)benzamide]
0.301 to 0.6 | O=C(Nc1ccc(Nc2ccnc3[nH]c(=O)ccc23)cc1)c1ccc(F)cc1F [Compound 44, 2,4-Difluoro-N-(4-(7-oxo-7,8-dihydro-1,8-naphthyridin-4-yl-amino)phenyl)benzamide]
0.001 to 0.3 | O=C(Nc1ccc(Nc2ccnc3[nH]c(=O)ccc23)cc1)C1CCCCC1 [Compound 45, N-(4-(7-oxo-7,8-dihydro-1,8-naphthyridin-4-yl-amino)phenyl)cyclohexanecarboxamide]
0.001 to 0.3 | O=C(Nc1ccc(Oc2ccnc3[nH]c(=O)ccc23)cc1)c1ccccc1 [Compound 46, N-(4-(7-oxo-7,8-dihydro-1,8-naphthyridin-4-yloxy)phenyl)benzamide]
0.001 to 0.3 | O=C(Nc1ccccc1Nc1ccnc2[nH]c(=O)ccc12)c1ccccc1 [Compound 47, N-(2-(7-oxo-7,8-dihydro-1,8-naphthyridin-4-ylamino)phenyl)benzamide]
> 1 | O=C(Nc1ccccc1)c1ccc(Nc2ccnc3[nH]c(=O)ccc23)cc1 [Compound 48, 4-(7-Oxo-7,8-dihydro-1,8-naphthyridin-4-ylamino)-N-phenyl-benzamide]
> 1 | O=C(Nc1ccc(Nc2ccnc3[nH]c(=O)ccc23)cc1)c1cc(C(F)(F)F)cc(C(F)(F)F)c1 [Compound 49, 3,5-Bis(trifluoromethyl)-N-(4-(7-oxo-7,8-dihydro-1,8-naphthyridin-4-yl-amino)phenyl)benzamide]
0.601 to 1 | O=C(Nc1ccc(Nc2ccnc3[nH]c(=O)ccc23)cc1)c1ccc(OC(F)(F)F)cc1 [Compound 56, 4-Trifluoromethoxy-N-(4-(7-oxo-7,8-dihydro-1,8-naphthyridin-4-yl-amino)phenyl)benzamide]
